Measured values taken from ChEMBL document CHEMBL1201862, “PubChem BioAssay data set” (2004).
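Cells were grown in 96-well plates and exposed to each compound for 48 hours at five concentrations; endpoints were interpolated linearly between bracketing concentrations, or set to the highest concentration if not reached. Abbreviation: GI50, concentration required for 50% inhibition of growth.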 Active and inactive are the calls of the source. No stated cut-off is given here; in the data, active = GI50 up to about 1.1 µM and inactive = higher.

Legend:
Experiment in all cases: DTP human tumour cell line panel, 48 h
A549 = system: A549
CAKI-1 = system: CAKI-1
COLO 205 = system: COLO 205
DU-145 = system: DU-145
HOP-92 = system: HOP-92
Hs-578T = system: Hs-578T
LOX IMVI = system: LOX IMVI
OVCAR-5 = system: OVCAR-5
SF-539 = system: SF-539
SK-MEL-28 = system: SK-MEL-28
SK-OV-3 = system: SK-OV-3
UACC-257 = system: UACC-257
EKVX = system: EKVX
HL-60 = system: HL-60
HOP-62 = system: HOP-62
HT-29 = system: HT-29
IGROV-1 = system: IGROV-1
NCI-H522 = system: NCI-H522
SNB-75 = system: SNB-75
Malme-3M = system: Malme-3M

Measured: GI50

O=C(/C=C/c1ccccc1)CCC1C(=O)NC(=S)NC1=O
inactive: A549 > 100 µM | CAKI-1 26.5 µM | COLO 205 > 100 µM | DU-145 > 100 µM | HOP-92 > 100 µM | Hs-578T > 100 µM | LOX IMVI > 100 µM | OVCAR-5 > 100 µM | SF-539 > 100 µM | SK-MEL-28 > 100 µM | SK-OV-3 > 100 µM | UACC-257 > 100 µM

CC(=O)N1CC(C)(C)c2c(C)c(O)c(C)c(C)c21
inactive: A549 > 100 µM | COLO 205 > 100 µM | DU-145 > 100 µM | EKVX > 100 µM | HL-60 > 100 µM | HOP-62 > 100 µM | HOP-92 > 100 µM | HT-29 > 100 µM | Hs-578T > 100 µM | IGROV-1 > 100 µM | LOX IMVI > 100 µM | NCI-H522 > 100 µM | OVCAR-5 > 100 µM | SF-539 > 100 µM | SK-MEL-28 > 100 µM | SK-OV-3 > 100 µM | SNB-75 54.5 µM | UACC-257 > 100 µM

CC(C)N(C(C)C)S(=O)(=O)CC12CCC(C/C1=N\O)C2 (stereo not given)
inactive: A549 > 100 µM | CAKI-1 > 100 µM | COLO 205 > 100 µM | DU-145 > 100 µM | EKVX > 100 µM | HL-60 > 100 µM | HOP-62 > 100 µM | HT-29 > 100 µM | Hs-578T > 100 µM | IGROV-1 > 100 µM | LOX IMVI > 100 µM | Malme-3M > 100 µM | NCI-H522 > 100 µM | OVCAR-5 > 100 µM | SF-539 > 100 µM | SK-MEL-28 > 100 µM | SK-OV-3 > 100 µM | SNB-75 > 100 µM | UACC-257 > 100 µM

CC1(C)[C@@H]2CC[C@@]1(C)[C@H](O)[C@@H]2SCc1ccccc1
inactive: A549 19 µM | CAKI-1 25.1 µM | COLO 205 17.8 µM | DU-145 19.9 µM | EKVX 15.3 µM | HL-60 25.5 µM | HOP-62 17.9 µM | HOP-92 13.7 µM | HT-29 14.7 µM | Hs-578T 14.2 µM | IGROV-1 18.7 µM | LOX IMVI 18.5 µM | NCI-H522 15.2 µM | OVCAR-5 17 µM | SF-539 17.8 µM | SK-MEL-28 17.5 µM | SK-OV-3 20.5 µM | SNB-75 27.4 µM | UACC-257 14 µM

CC(=O)CC1(CBr)Nc2ccc([N+](=O)[O-])cc2NC1=O (stereo not given)
inactive: A549 > 100 µM | CAKI-1 > 100 µM | COLO 205 > 100 µM | DU-145 42.1 µM | EKVX > 100 µM | HOP-62 83.2 µM | HOP-92 59.6 µM | HT-29 90.4 µM | IGROV-1 > 100 µM | LOX IMVI 52.1 µM | Malme-3M 92.3 µM | NCI-H522 18.5 µM | OVCAR-5 > 100 µM | SF-539 44.1 µM | SK-MEL-28 97.7 µM | SK-OV-3 > 100 µM | SNB-75 > 100 µM | UACC-257 > 100 µM

CN1CCc2c(sc3nc(Nc4ccccc4)n(N)c(=O)c23)C1
inactive: A549 > 100 µM | CAKI-1 > 100 µM | COLO 205 42.8 µM | DU-145 > 100 µM | EKVX > 100 µM | HL-60 19.8 µM | HOP-62 > 100 µM | HT-29 43.8 µM | Hs-578T > 100 µM | IGROV-1 > 100 µM | OVCAR-5 > 100 µM | SF-539 > 100 µM | UACC-257 60.4 µM

O=C1CC(c2ccccc2Cl)Oc2ccccc21 (stereo not given)
inactive: CAKI-1 40.9 µM | COLO 205 25.4 µM | DU-145 45 µM | EKVX 14 µM | HL-60 32.4 µM | HOP-62 25.9 µM | HOP-92 25 µM | HT-29 10.8 µM | Hs-578T 26.3 µM | IGROV-1 21.4 µM | LOX IMVI 40.4 µM | SF-539 16 µM | SK-MEL-28 > 100 µM | SK-OV-3 > 100 µM | SNB-75 22.7 µM | UACC-257 > 100 µM

Cc1c(C)c2c(c(N)c1C#N)C(=O)N(Cc1ccc(S(N)(=O)=O)cc1)C2=O
inactive: A549 > 58.6 µM | CAKI-1 > 100 µM | COLO 205 > 100 µM | DU-145 32.1 µM | EKVX > 45 µM | HL-60 > 100 µM | HOP-62 4.07 µM | HOP-92 13.6 µM | HT-29 > 100 µM | Hs-578T > 46.3 µM | IGROV-1 > 38.4 µM | LOX IMVI 64.6 µM | Malme-3M 20.5 µM | OVCAR-5 24.3 µM | SF-539 > 34.4 µM | SK-MEL-28 > 100 µM | SK-OV-3 4.43 µM | SNB-75 > 35.9 µM | UACC-257 > 100 µM

N#CI1OC(C(F)(F)F)(C(F)(F)F)c2ccccc21
inactive: A549 62.5 µM | CAKI-1 14.1 µM | COLO 205 12.9 µM | DU-145 18.6 µM | EKVX 14.6 µM | HL-60 5.77 µM | HOP-62 57.5 µM | HOP-92 16.3 µM | HT-29 16.4 µM | IGROV-1 16.4 µM | LOX IMVI 18.8 µM | NCI-H522 7.19 µM | OVCAR-5 19.2 µM | SF-539 19.9 µM | SK-MEL-28 15.5 µM | SK-OV-3 > 100 µM | SNB-75 13.9 µM | UACC-257 22.2 µM

O=C1CC(C(=O)N2CCCCC2)n2c(=O)n(-c3ccccc3)c(=O)n2C1 (stereo not given)
inactive: A549 > 100 µM | CAKI-1 > 100 µM | COLO 205 > 100 µM | DU-145 > 100 µM | EKVX > 100 µM | HOP-62 > 100 µM | HT-29 > 100 µM | Hs-578T > 100 µM | IGROV-1 > 100 µM | LOX IMVI > 100 µM | Malme-3M > 100 µM | NCI-H522 > 100 µM | OVCAR-5 > 100 µM | SF-539 > 100 µM | SK-OV-3 > 100 µM | SNB-75 > 100 µM | UACC-257 > 100 µM

Cc1cc2c(c(S(=O)(=O)c3ccccc3[N+](=O)[O-])c1)NCCC2
inactive: A549 40.3 µM | COLO 205 > 100 µM | DU-145 77.1 µM | EKVX > 100 µM | HL-60 26.2 µM | HOP-62 > 100 µM | HT-29 > 100 µM | Hs-578T > 100 µM | IGROV-1 95.7 µM | LOX IMVI 47.2 µM | Malme-3M 44.8 µM | NCI-H522 16.1 µM | OVCAR-5 > 100 µM | SF-539 > 100 µM | SK-MEL-28 54 µM | SK-OV-3 > 100 µM | SNB-75 > 100 µM

COc1c(O)cc2ccnc3c2c1N(C)C=C3
inactive: A549 > 100 µM | CAKI-1 > 100 µM | COLO 205 94.6 µM | DU-145 > 100 µM | EKVX > 100 µM | HOP-62 > 100 µM | Hs-578T > 100 µM | IGROV-1 > 100 µM | LOX IMVI > 100 µM | OVCAR-5 > 100 µM | SK-MEL-28 > 100 µM | SK-OV-3 > 100 µM | SNB-75 > 100 µM | UACC-257 > 100 µM
